Measured values from publication PMC11494653, “Teixobactin “Swapmers” with L Tail Stereochemistry Retain Antibiotic Activity” (The Journal of Organic Chemistry, 2024).
Converted amounts (≈) assume the structure as drawn. Positions of bridges follow the written chain, without caps; N, C: chain ends. Non-standard residues stand in square brackets, D forms with d. Residues, ends and D or L forms follow the SMILES beside them. Chains are numbered I, II in the order given. d(aIle) = CC[C@H](C)[C@@H](N)C(=O)O; dNMeF = CN[C@H](Cc1ccccc1)C(=O)O

Key:
Assay type in all cases: cell-based
[1] = tested on: Bacillus subtilis ATCC 6051; experiment: microbe, parasite or virus in culture; conditions: for MIC B. subtilis / MIC Bacillus subtilis ATCC 6051: ATCC 6051, 16 h
Source text: (§1) We determined the MIC values of these teixobactin swapmer prodrugs against the Gram-positive bacteria Bacillus subtilis, Staphylococcus epidermidis, methicillin-susceptible Staphylococcus aureus (MSSA), and methicillin-resistant Staphylococcus aureus (MRSA) in a broth microdilution assay as described previously.[9],[10] We used the antibiotic vancomycin as a positive control and the Gram-negative bacterium Escherichia coli as a negative control. The MIC values for Lys10-teixobactin 1, Lys10-teixobactin prodrug 2, Arg10-teixobactin 6, and Arg10-teixobactin prodrug 7 are shown in Table 1 for comparison with the swapmer analogues.
(§2) We performed minimum inhibitory concentration (MIC) assays as previously described.[9] A concise procedure is detailed below.
(§3) Stock solutions of teixobactin analogues were prepared gravimetrically by dissolving an appropriate amount of peptide in 20 mg/mL sterile DMSO. The stock solutions were stored at −20 °C for subsequent experiments.
(§4) Bacillus subtilis (ATCC 6051), Staphylococcus epidermidis (ATCC 14990), methicillin-susceptible Staphylococcus aureus (MSSA) (ATCC 29213), and Escherichia coli (ATCC 10798) were cultured from glycerol stocks in Mueller-Hinton broth containing 0.002% polysorbate 80 overnight in a shaking incubator at 37 °C. Methicillin-resistant Staphylococcus aureus (MRSA) (ATCC 700698) was cultured from a glycerol stock in brain hearth infusion broth containing 0.002% polysorbate 80 overnight in a shaking incubator at 37 °C. After overnight incubation, each culture was diluted with the appropriate media (containing 0.002% polysorbate 80) to 1 × 10^6 colony-forming units (CFU)/mL as previously described.[12],[15],[16] Briefly, we have previously determined the CFU/mL for each bacterium at OD600 = 0.075 for 200 μL of bacterial culture in a 96-well plate. The OD600 of each overnight culture was determined, and then each culture was diluted to OD600 = 0.075. Cultures were further diluted to achieve 1 × 10^6 CFU/mL solutions.
(§5) Aliquots of the 20 mg/mL peptide stock solutions were diluted to make a 64 μg/mL solution in Mueller-Hinton broth containing 0.002% polysorbate 80 and a 64 μg/mL solution in brain heart infusion broth containing 0.002% polysorbate 80. The solutions were mixed by pipetting to ensure homogeneity. A 200-μL aliquot of a 64 μg/mL solution was transferred to a 96-well plate. 2-fold serial dilutions were made with media containing 0.002% polysorbate 80 across the 96-well plate to achieve a final volume of 100 μL in each well (initial concentrations ranging from 64 to 0.0625 μg/mL). A 100-μL aliquot of a 1 × 10^6 CFU/mL bacterial solution was added to each well in the series, resulting in final bacterial concentrations of 5 × 10^5 CFU/mL in each well. As 100 μL of bacteria were added to each well, the concentration of peptide was also diluted 2-fold (final concentrations ranging from 32 μg/mL to 0.03125 μg/mL). Each plate was covered with a lid and incubated at 37 °C for 16 h. The optical density measurements were measured at 600 nm using a 96-well UV–vis plate reader (MultiSkan GO, Thermo Scientific). The MIC values were taken as the lowest concentration that had no bacterial growth. MIC assays for each compound were performed in triplicate to ensure reproducibility.

[2] = tested on: Escherichia coli ATCC 10798; experiment: microbe, parasite or virus in culture; conditions: for MIC Escherichia coli ATCC 10798: ATCC 10798, 16 h
Source text: as §1, §2, §3, §4, §5

[3] = tested on: Staphylococcus aureus (MRSA) ATCC 700698; experiment: microbe, parasite or virus in culture; conditions: for MIC Staphylococcus aureus (MRSA) ATCC 700698: ATCC 700698, 16 h
Source text: as §1, §2, §3, §4, §5

[4] = tested on: Staphylococcus aureus (MSSA) ATCC 29213; experiment: microbe, parasite or virus in culture; conditions: for MIC Staphylococcus aureus (MSSA) ATCC 29213: ATCC 29213, 16 h
Source text: as §1, §2, §3, §4, §5

[5] = tested on: Staphylococcus epidermidis ATCC 14990; experiment: microbe, parasite or virus in culture; conditions: for MIC Staphylococcus epidermidis ATCC 14990: ATCC 14990, 16 h
Source text: as §1, §2, §3, §4, §5

[6] = tested on: Gram-positive bacteria tested; conditions: 16 h
Source text: as §1, §2, §3, §4
Aliquots of the 20 mg/mL peptide stock solutions were diluted to make a 64 μg/mL solution in Mueller-Hinton broth containing 0.002% polysorbate 80 and a 64 μg/mL solution in brain heart infusion broth containing 0.002% polysorbate 80. The solutions were mixed by pipetting to ensure homogeneity. A 200-μL aliquot of a 64 μg/mL solution was transferred to a 96-well plate. 2-fold serial dilutions were made with media containing 0.002% polysorbate 80 across the 96-well plate to achieve a final volume of 100 μL in each well (initial concentrations ranging from 64 to 0.0625 μg/mL). […] The optical density measurements were measured at 600 nm using a 96-well UV–vis plate reader (MultiSkan GO, Thermo Scientific). […]

Row | Structure (SMILES) | MIC B. subtilis [1] [µg/mL] | MIC Bacillus subtilis ATCC 6051 [1] [µg/mL] | MIC Escherichia coli ATCC 10798 [2] [µg/mL] | MIC Staphylococcus aureus (MRSA) ATCC 700698 [3] [µg/mL] | MIC Staphylococcus aureus (MSSA) ATCC 29213 [4] [µg/mL] | MIC Staphylococcus epidermidis ATCC 14990 [5] [µg/mL] | MIC values against the Gram-positive bacteria tested [6] [µg/mL] | fold reduced activity compared to the unswapped analogues 1, 2, 6, and 7 [6] | MIC ([1]; Bacillus subtilis, ATCC6051, 16 h, read-out: MIC Bacillus subtilis ATCC 6051) [µg/mL] | MIC ([2]; Escherichia coli, ATCC10798, 16 h, read-out: MIC Escherichia coli ATCC 10798) [µg/mL] | MIC ([3]; Staphylococcus aureus, 16 h, read-out: MIC Staphylococcus aureus (MRSA) ATCC 700698) [µg/mL] | MIC ([4]; Staphylococcus aureus, 16 h, read-out: MIC Staphylococcus aureus (MSSA) ATCC 29213) [µg/mL] | MIC ([5]; Staphylococcus epidermidis, ATCC14990, 16 h, read-out: MIC Staphylococcus epidermidis ATCC 14990) [µg/mL]
1 | CC[C@H](C)[C@H](NC(=O)[C@@H](Cc1ccccc1)NC)C(=O)N[C@@H](CO)C(=O)N[C@H](CCC(N)=O)C(=O)N[C@@H](C(=O)N[C@H](C(=O)N[C@@H](CO)C(=O)N[C@H]1C(=O)N[C@@H](C)C(=O)N[C@@H](CCCNC(=N)N)C(=O)N[C@@H]([C@@H](C)CC)C(=O)O[C@H]1C)[C@@H](C)CC)[C@@H](C)CC [compound 6, Arg10-teixobactin] | ≤ 0.0625 | ≤0.0313 | >32 | 2 (≈ 1.61 µM) | 2 (≈ 1.61 µM) | 0.5 (≈ 0.402 µM) | – | – | – | – | – | – | –
2 | CC[C@H](C)[C@H](NC(=O)[C@@H](Cc1ccccc1)NC)C(=O)N[C@@H](CO)C(=O)N[C@H](CCC(N)=O)C(=O)N[C@@H](C(=O)N[C@H](C(=O)OC[C@H](N)C(=O)N[C@H]1C(=O)N[C@@H](C)C(=O)N[C@@H](CCCNC(=N)N)C(=O)N[C@@H]([C@@H](C)CC)C(=O)O[C@H]1C)[C@@H](C)CC)[C@@H](C)CC [compound 7, [Ile6-O-Ser7],Arg10-teixobactin] (I: H-[dNMeF]IS[dQ][d(aIle)]I / II: H-S[dT]ARI; ester I:C-II:1, II:2-II:C) | ≤ 0.0625 | 0.0625 (≈ 0.0502 µM) | >32 | 1 (≈ 0.804 µM) | 2 (≈ 1.61 µM) | 0.5 (≈ 0.402 µM) | – | – | – | – | – | – | –
3 | CC[C@H](C)[C@H](NC(=O)[C@H](CO)NC(=O)[C@@H](NC(=O)[C@@H](Cc1ccccc1)NC)[C@@H](C)CC)C(=O)N[C@@H](CCC(N)=O)C(=O)N[C@H](C(=O)OC[C@H](N)C(=O)N[C@H]1C(=O)N[C@@H](C)C(=O)N[C@@H](CCCNC(=N)N)C(=O)N[C@@H]([C@@H](C)CC)C(=O)O[C@H]1C)[C@@H](C)CC [compound 8, Ile4,Gln5,[Ile6-O-Ser7],Arg10-teixobactin] (I: H-[dNMeF]ISIQI / II: H-S[dT]ARI; ester I:C-II:1, II:2-II:C) | – | 2 (≈ 1.61 µM) | >32 | 4 (≈ 3.21 µM) | 4 (≈ 3.21 µM) | 2 (≈ 1.61 µM) | 2 to 4 | 2–4 fold | – | – | – | – | –
4 | CN[C@H](CC(C)C)C(=O)N[C@H]1C(=O)N[C@@H](CC(N)=O)C(=O)N[C@H]2C(=O)N[C@H]3C(=O)N[C@H](C(=O)N[C@H](C(=O)O)c4cc(O)cc(O)c4-c4cc3ccc4O)[C@H](O)c3ccc(c(Cl)c3)Oc3cc2cc(c3O[C@@H]2O[C@H](CO)[C@@H](O)[C@H](O)[C@H]2O[C@H]2C[C@](C)(N)[C@H](O)[C@H](C)O2)Oc2ccc(cc2Cl)[C@H]1O [vancomycin, reference compound] | – | – | – | – | – | – | – | – | 0.125 to 0.25 (≈ 0.0863 to 0.173 µM) | > 32 | 4 (≈ 2.76 µM) | 1 to 2 (≈ 0.69 to 1.38 µM) | 1 to 2 (≈ 0.69 to 1.38 µM)
